The subject of data set [1] is TGF-β signaling. To be noted: breast cancer cells; cited from earlier work.
Data set [2] deals with VsVg positive control lentivirus. Format: cell-based. The following applies: HSAE cells pre-treated with 20 nM to 1 μM for 2 hours; 24 hour infection.
The conditions of data set [3]: Phase I, solid tumors; cited from earlier work.
Data set [4] has as its system ACE2. To be noted: cited from earlier work.
Data set [5] has as its system SARS-CoV-2 pseudovirus. The following applies: cited from earlier work.

For `COc1ccc(S(=O)(=O)N[C@@H](CNc2nc(C)nc(N3CCC(c4ccc5c(n4)NCCC5)CC3)c2C)C(=O)O)cc1` [GLPG-0187], in data set [1], the “effect on TGF-β signaling” value is on record as “decreased TGF-β signaling”. Besides, the “effect on VsVg positive control infection” value in data set [2] is recorded as “no effect of the inhibitor was observed”. Moreover, the “toxicity profile in patients” value in data set [3] is “favorable toxicity profile”.
In the case of `CNS(=O)(=O)Nc1nccc(Cc2c(C)c3ccc(Oc4ncccn4)cc3oc2=O)c1F` [VS-6766], the “cellular expression of ACE2” value in data set [4] is given as “reduce cellular expression of ACE2”. Moreover, the “pseudovirus infection of multiple human cell types” value in data set [5] is “inhibit pseudovirus infection”.

Source of the values: patent US20230330089A1, “COVID PREVENTION AND TREATMENT USING AN INTEGRIN INHIBITOR” (priority 2022, published 2023).
